Measurements reported in PMC7277860, “Viridistratins A−C, Antimicrobial and Cytotoxic Benzo[j]fluoranthenes from Stromata of Annulohypoxylon viridistratum (Hypoxylaceae, Ascomycota)” (Biomolecules, 2020).

Assay: Cytotoxicity assay (MTT)
Format: cell-based, human
Details: for IC50: 5 days
Method: Compounds 1−5 were dissolved as described in the previous section. The cytotoxicity assay was initially performed against the cell lines L929 (mouse fibroblasts), as well as KB 3.1 (human papillomavirus-related endocervical adenocarcinoma), as described previously. A detailed protocol, as well as sources of the cell lines, is given in the Supporting Information.
After incubating the cell lines with a serial dilution of the test compounds (final range: 37 to 0.6 × 10^−3 µg/mL) for five days, the cells were dyed using 3-(4,5-dimethyl-2-thiazolyl)-2,5-diphenyl-2H-tetrazolium bromide (MTT), which is only converted to its purple formazan derivative by living cells. Then, the intensity of the purple derivative in relation to cells without additive (set to 100% viability) for each concentration of a test compound was quantified. For this, the absorption at 595 nm was measured using a microplate reader to calculate the percentage of cell viability. From this, the half-maximum inhibitory concentration (IC50, in µM) was calculated.
If an inhibition of cell viability with an IC50 < 50 µM was observed, further cell lines were subjected to the test compounds: PC-3 (human prostate adenocarcinoma), SK-OV-3 (human ovary adenocarcinoma), MCF-7 (human breast adenocarcinoma), A431 (human squamous carcinoma) and A549 (human lung carcinoma).
Protocol: Cytotoxicity Assay
The ass ay w as co nducted i n 9 6-well flat-bottom mi crotiter plates using the parameters summarised i n Tabl e S 2 and as described in [S2].
Cell lines L929 and KB 3.1 were incubated at 37 °C under 10 % CO2 in Gibco™ DMEM medium (Thermo Fisher Scientific, Waltham, MA, USA) supplemented with 10 % FBS. A microtiter plate was filled with 120 µL of this suspension (50,000/mL) in each well.
Seperately, another microtiter plate was filled with 100 µL of growth medium in each well. Then, 50 µL of the test compound sol utions (1 mg/mL) were given to wells of the first column in two replicates (one compound per row). C ell s wi thout addi ti ves, Me O H, and MeOH: DMSO 9+1 were used as negative controls. Starting from the first column, 50 µL of the solutions were gradually transferred to the ne xt col umn, the conte nts thoroughl y mi xed, and 50 µ L transferred to the following column. This created a serial dilution of the test compounds r anging from 333 µg/mL to 1.9 ×10−3 µg/mL. The remai ni ng 50 µL after column twelve were discarded. From this microtiter plate, 60 µL of the sol utions from 111 µg/ mL to 1.9×10−3 µg/mL were given to the first plate containing 120 µL of the cel l suspens i ons (i.e. the hi ghest concentrati on 333 µg/mL was not used). T his resulted i n fi nal compound concent rati ons rangi ng from […]
After 5 days of incubation under the aforeme ntioned i ncubati on condi ti ons, the half maximum inhibitory concentrati ons (IC 50) were determined using a colorimetric tetrazolium dye MTT assay [S3].
For this, 20 µL of a 5 mg/mL solution of 3-( 4 ,5 -dimethyl-2-thi azo l yl)-2 ,5 -di phenyl -2H-tetrazolium bromide (MTT) w ere added to each well and incubated for two hours at 37 °C. Then, the microtiter plate was centrifuged (3,000 r p m, 5 mi n) and the supernat ant remo ved by ho l di ng the pl ate upsi de-do wn and gentle shaking. Afterwards, the wells were washed using 100 µL of phosph ate buffered saline (PBS).
The plate was again centrifuged and the supernatant removed as described before. Then, 100 µL of an isopropanol:HCl solution (1L i sopropanol+4 mL HCl 37 % w/v) were added to the wells. After i ncubati ng fo r 10 mi n at ambi ent te mperature, the a bso r pti o n of the well s at 595 nm was measured wi th an I nfi ni te ® 200 Pro microplate reader (TECAN, Männedorf, Schweiz).
The absorption values of the cells without additives were averaged and set to 100 % cell viability.
Then, t he me ans of absorption of the two compound replicates were set in relation to the blank media.
These percentage values were plotted a gainst the concentration range (37 µg/mL to 0.6×10 −3 µg/mL). […]

[1] = A431 human squamous carcinoma cells, A431 human squamous AC
[2] = A549 human lung carcinoma cells, A549 human lung carcinoma
[3] = MCF-7 human breast adenocarcinoma cells, MCF-7 human breast AC
[4] = PC-3 human prostate adenocarcinoma cells, PC-3 human prostate AC
[5] = SK-OV-3 human ovary adenocarcinoma cells, SK-OV-3 human ovary AC

SMILES | IC50 at 5 days [1] | IC50 at 5 days [2] | IC50 at 5 days [3] | IC50 at 5 days [4] | IC50 at 5 days [5] | IC50 (A431 human squamous AC) | IC50 (A549 human lung carcinoma) | IC50 (MCF-7 human breast AC) | IC50 (PC-3 human prostate AC) | IC50 (SK-OV-3 human ovary AC)
COc1cccc2c3c(ccc12)-c1ccc(O)c2c(O)ccc-3c12 [Compound 2, viridistratin B] | 1.1 µM | 1.4 µM | 5.1 µM | 9.9 µM | 7.3 µM | – | – | – | – | –
Oc1cccc2c3c(ccc12)-c1ccc(O)c2c(O)ccc-3c12 [Compound 1, viridistratin A] | 8.7 µM | 20 µM | 9.7 µM | 23.7 µM | 56.7 µM | – | – | – | – | –
O=C1CCC(=O)c2c1c(O)cc1c2-c2ccc(O)c3c(O)ccc-1c23 [Compound 5, truncatone C] | 16.3 µM | 27.1 µM | 7.8 µM | 25.6 µM | 33.1 µM | – | – | – | – | –
O=C1C[C@H]2C(=C3CCC(=O)c4c(O)ccc2c43)c2cccc(O)c21 [Compound 4, truncatone A] | – | – | – | – | – | 5.7 µM | 17 µM | 8.8 µM | 44 µM | 66 µM
